Results from US20030100769A1, “Cyclic amidine compounds” (priority 2000, published 2003).
pEC50, pKi: −log10 of the molar value.

Legend:
[1] = molecular target: T1, α4β2 subtype of nicotinic acetylcholine receptors (Rattus norvegicus, UniProt P09483+P12390); assay: Binding assay at α4β2 subtype of nicotinic acetylcholine receptors ([3H]-cytisine, rat brain membrane)
T1 construct: examined using rat brain membrane obtained from whole homogenized brain; from tissue; host or cells: rat whole brain membranes (Fischer-344 male rats)
T1 sequence (P09483 31-630): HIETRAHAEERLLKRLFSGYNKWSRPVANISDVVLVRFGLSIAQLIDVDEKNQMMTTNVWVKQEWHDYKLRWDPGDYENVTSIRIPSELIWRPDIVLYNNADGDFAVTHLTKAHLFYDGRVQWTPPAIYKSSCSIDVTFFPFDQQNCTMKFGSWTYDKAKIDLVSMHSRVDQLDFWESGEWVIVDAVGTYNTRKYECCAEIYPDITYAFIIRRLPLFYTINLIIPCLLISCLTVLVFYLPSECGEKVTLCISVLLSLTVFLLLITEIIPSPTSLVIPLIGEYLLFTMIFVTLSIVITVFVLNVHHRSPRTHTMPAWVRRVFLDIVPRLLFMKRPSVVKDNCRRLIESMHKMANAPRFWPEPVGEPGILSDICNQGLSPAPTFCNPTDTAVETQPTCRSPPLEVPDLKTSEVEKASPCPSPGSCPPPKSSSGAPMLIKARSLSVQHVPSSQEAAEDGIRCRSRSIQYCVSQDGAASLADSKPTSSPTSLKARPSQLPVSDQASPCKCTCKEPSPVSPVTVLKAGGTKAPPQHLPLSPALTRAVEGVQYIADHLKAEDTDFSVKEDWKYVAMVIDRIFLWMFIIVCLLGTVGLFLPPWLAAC
T1 sequence (P12390 25-500): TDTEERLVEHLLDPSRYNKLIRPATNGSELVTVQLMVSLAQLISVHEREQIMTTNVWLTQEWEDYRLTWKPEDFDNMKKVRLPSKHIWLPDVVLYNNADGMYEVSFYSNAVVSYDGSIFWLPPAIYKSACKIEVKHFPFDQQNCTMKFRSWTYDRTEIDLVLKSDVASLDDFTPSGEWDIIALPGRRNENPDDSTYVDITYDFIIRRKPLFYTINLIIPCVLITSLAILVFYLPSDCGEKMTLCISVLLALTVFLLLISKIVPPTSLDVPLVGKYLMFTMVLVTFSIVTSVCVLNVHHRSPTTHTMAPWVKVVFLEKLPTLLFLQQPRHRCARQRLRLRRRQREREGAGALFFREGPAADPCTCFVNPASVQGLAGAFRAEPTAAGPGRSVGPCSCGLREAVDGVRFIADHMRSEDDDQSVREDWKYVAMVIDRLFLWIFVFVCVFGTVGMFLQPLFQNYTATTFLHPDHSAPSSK
Description: The methods for evaluating the binding capabilities of the compounds at nicotinic acetylcholine receptors are different by subtypes of receptors. The binding capabilities of the compounds at α4β2 nicotinic acetylcholine receptors are examined using rat brain membrane obtained from whole homogenized brain, and determining the inhibiting rate of the compounds against [^3H]-cytisine binding to said brain membrane. Furthermore, the binding capabilities of the compounds at α1β1γδ nicotinic acetylcholine receptors are examined using homogenized rat muscle, and determining the inhibiting rate of the compounds against [^3H]-α-bungarotoxin binding to said muscle homogenate.
Binding Assays at α4β2 Subtype of Nicotinic Acetylcholine Receptors
(1) Preparation of Rat Brain Membrane Containing α4β2 Subtype of Nicotinic Acetylcholine Receptors
Rats were housed in the breeding cage controlled of the room temperature at 23±1° C., and the humidity of 55±5% for 1 to 4 weeks. Rats (3 to 4 rats per a cage) were housed with lights on for 12 hours daily (from 7:00 to 19:00), and allowed free access to food and water.
Preparation of rat brain membrane containing α4β2 subtype of nicotinic acetylcholine receptors was performed as follow. That is, rat brains were isolated just after sacrificed by decapitation, washed with ice-cooled saline solution and then frozen at −80° C. with liquid nitrogen and stored till using. After thawing the frozen brain, the brain was homogenized in 10 volumes of ice-cooled buffer solution (50 mM of Tris-HCl, 120 mM of NaCl, 5 mM of KCl, 1 mM of MgCl2, 2 mM of CaCl2; pH 7.4; 4° C.) using homogenizer (HG30, Hitachi Kohki Ltd.) for 30 seconds, and the homogenate were centrifuged under 1,000×G for 10 minutes at 4° C. The resulting supernatant was separated and the pellet was homogenized again with half volume of aforementioned prior buffer solution and centrifuged under the same conditions. Combined supernatant was further centrifuged under 40,000×G for 20 minutes at 4° C. The pellet was suspended in buffer solution and used for binding assays at receptors.
(2) Experiments of α4β2 Subtype of Nicotinic Acetylcholine Receptors Binding
Suspensions of membrane pellets containing 400-600 μg of protein were added to test tubes containing test compounds and [^3H]-cytisine (2 nM) in a final volume of 200 μl and incubated for 75 minutes in ice-cooled bath. The samples were isolated by vacuum filtration onto Whatman GF/B filters, which were prerinsed with 0.5% polyethylenimine just prior to sample filtration, using Brandel multi manifold cell harvester. The filters were rapidly washed with buffer solution (3×1 ml). The filters were counted in 3 ml of clearsol I (Nacalai Tesque Inc.).
The analyses of the experimental results were conducted by using the Accufit Competition Program (Beckman Ltd.).

[2] = molecular target: T2, human α4β2 subtype of nicotinic acetylcholine receptors (Homo sapiens, UniProt P17787+P43681); assay: Agonist activities at human α4β2 subtype of nicotinic acetylcholine receptors expressed in Xenopus oocytes (membrane potential holding method); type: cell-based; details: for pEC50: held at −50 mV, calculated in comparison with the reaction with 10 μM acetylcholine (100%), read-out: Agonist activity (ED50)
T2 construct: expressed in transfected cells; host or cells: Xenopus laevis oocytes injected with hnACh-R α4 and β2 cRNA (pSP64 polyA)
T2 sequence (P43681 29-627 limits assumed): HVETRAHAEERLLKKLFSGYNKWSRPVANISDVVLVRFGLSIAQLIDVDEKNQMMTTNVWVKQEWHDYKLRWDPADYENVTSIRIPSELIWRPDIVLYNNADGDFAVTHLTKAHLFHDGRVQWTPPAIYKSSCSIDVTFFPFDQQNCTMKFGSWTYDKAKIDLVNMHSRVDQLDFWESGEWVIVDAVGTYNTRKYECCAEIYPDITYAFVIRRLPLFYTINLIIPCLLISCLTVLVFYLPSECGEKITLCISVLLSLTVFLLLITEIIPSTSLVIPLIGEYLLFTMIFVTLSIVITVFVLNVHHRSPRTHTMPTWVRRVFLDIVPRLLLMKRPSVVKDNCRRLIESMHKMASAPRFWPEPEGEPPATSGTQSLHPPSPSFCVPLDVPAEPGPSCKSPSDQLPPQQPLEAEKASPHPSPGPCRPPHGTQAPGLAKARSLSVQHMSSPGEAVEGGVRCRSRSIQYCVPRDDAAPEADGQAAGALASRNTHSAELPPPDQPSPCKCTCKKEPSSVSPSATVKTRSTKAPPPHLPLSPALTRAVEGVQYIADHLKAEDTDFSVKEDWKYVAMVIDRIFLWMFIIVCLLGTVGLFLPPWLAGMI
T2 sequence (P17787 26-502): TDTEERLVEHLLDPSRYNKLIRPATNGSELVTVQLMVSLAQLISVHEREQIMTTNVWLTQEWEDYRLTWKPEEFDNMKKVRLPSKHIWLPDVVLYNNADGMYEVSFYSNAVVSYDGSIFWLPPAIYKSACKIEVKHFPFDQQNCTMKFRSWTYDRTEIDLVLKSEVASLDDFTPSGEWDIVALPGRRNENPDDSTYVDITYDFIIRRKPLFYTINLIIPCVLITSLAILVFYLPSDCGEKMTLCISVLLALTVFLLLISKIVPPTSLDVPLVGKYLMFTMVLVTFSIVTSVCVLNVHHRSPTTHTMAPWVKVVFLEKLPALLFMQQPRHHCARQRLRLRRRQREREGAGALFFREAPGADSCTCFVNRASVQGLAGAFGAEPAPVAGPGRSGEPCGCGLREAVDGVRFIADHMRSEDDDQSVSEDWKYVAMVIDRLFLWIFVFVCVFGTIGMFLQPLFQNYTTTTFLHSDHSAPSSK
Protocol: The agonist effect in human α4β2 subtype of nicotinic acetylcholine receptors are examined by using human nicotinic acetylcholine receptors prepared in oocytes of Xenopus laevis, which is injected with cRNA from the corresponding cloning cDNA of human α4 and β2 subunits of nicotinic acetylcholine receptors, and to measure the expression of the electric response by adding the test compounds to perfusion solution by means of membrane potential holding method.
Agonist Activities at Human α4β2 Subtype of Nicotinic Acetylcholine Receptors
(1) Preparation of cRNA of Human α4β2 Subtype of Nicotinic Acetylcholine Receptors
The obtained hnACh-R α4 cDNA and hnACh-R β2 cDNA were inserted to the cRNA expression vector (pSP64 polyA) having SP6 RNA promoter to construct hnACh-R α4/pSP64 polyA and hnACh-R β2/pSP64 polyA, respectively. After cutting from expression vector by restriction enzyme (EcoRI), transcription was performed by affecting SP6 RNA polymerase in the presence of cap analogues to obtain hnACh-R α4 cRNA and hnACh-R β2 cRNA, respectively.
(2) Expression of Human α4β2 Subtype Nicotinic Acetylcholine Receptors in Xenopus Oocytes
Oocytes were purchased from Kitanihonseibutsukyohzai Co., Ltd., which were already enucleated from Xenopus laevis, and used in this experiment.
The oocytes were treated with collagenase (Sigma type I; 1 mg/ml) in calcium-free modified Birth's solution (88 mM of NaCl, 1 mM of KCl, 2.4 mM of NaHCO3, 0.82 mM of MgSO4, 15 mM of HEPES, pH 7.6) under gently stirring at room temperature for 90 minutes, and washed out the enzyme from the tissue. Then, oocytes were separated from ovarian follicle by tweezers, and isolated oocytes were placed in antibiotics containing modified Birth's solution (88 mM of NaCl, 1 mM of KCl, 2.4 mM of NaHCO3, 0.82 mM of MgSO4, 15 mM of HEPES, pH 7.6, and 0.1 v/v % of mixture solution containing of penicillin and streptomycin for incubation; Sigma Co.). […] In oocytes, heterogeneous quintuple [(α4)2(β2)3] was composed by translation of injected cRNAs, and ion channel receptors were constructed on cell membrane.
(3) Agonist Activities at Human α4β2 Subtype of Nicotinic Acetylcholine Receptors
The recordings of responses at human α4β2 subtype of nicotinic acetylcholine receptors by means of membrane potential holding method were performed as follow. […] Test compounds were added to the perfusion solution, and recorded the peak strength of induced inward current. In order to normalize the responses of test compounds, the responses with acetylcholine (Ach) were recorded before and after application of the test compounds. Generally in the oocytes just after isolated, the response of intrinsic muscarinic acetylcholine receptors, which is inward current caused by activation of calcium dependence chloride ion channels with increase of the intracellular calcium concentration by stimulation of receptors, is observed. […] Therefore, the responses observed in oocytes with injection of hnACh-R α4 cRNA and hnACh-R β2 cRNA, i.e., the inward current induced by the intracellular influx of sodium ion according to the stimulation of receptors, would be the freshly observed responses of human α4β2 subtype nicotinic acetylcholine receptors.

Row | Compound | pKi [1] | pEC50 [2] | Agonist activity: control % by response at 100 μM of the test compound ([2]; 100 μM test compound, relative to 10 μM acetylcholine (100%))
1 | CN1CCN=C1c1ccc(Cl)nc1 [Compound 3, 2-(6-chloro-3-pyridyl)-1-methyl-2-imidazoline] | 7.35 | 4.36 | –
2 | Clc1ccc(C2=NCCCN2)cn1 [Compound 2, 2-(6-chloro-3-pyridyl)-1,4,5,6-tetrahydropyrimidine] | 7.89 | 5.47 | –
3 | Clc1ncc(C2=NCCCN2)s1 [Compound 22, 2-(2-chloro-5-thiazolyl)-1,4,5,6-tetrahydropyrimidine] | 6.37 | – | (13.2%)
